14 molecules from US12187709B2 (Genentech, Inc., priority 2021, dated 2025) can be followed below.

For experiment [1], the target named is Cbl-b (Homo sapiens (Human), UniProt Q13191). As to the kind of experiment: Cbl-b LCK Ub TR-FRET assay (Cbl-b Lck HTRF). The experiment is classed as biochemical. The following applies: for IC50: Cbl-b LCK Ub TR-FRET. Summed up: (§1)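 Signal is read once the detection mix has stood 20 min at ambient temperature. Curves are anchored by DMSO as maximum and by omission of LCK as minimum.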

Experiment [2] has as its target c-Cbl (Homo sapiens (Human), UniProt P22681). The experiment in a line: C-Cbl LCK Ub TR-FRET assay (C-cbl Lck HTRF). It is filed as biochemical. Put shortly:
as §1
A general note: Time-resolved FRET reads energy transfer from a long-lived donor to a nearby acceptor.

Experiment [3] has as its target Human Cbl-b (residues 40-426) (Homo sapiens (Human), UniProt Q13191). As to the kind of experiment: Cbl-b SPR assay. The experiment is classed as binding. The following applies: for Fold of selectivity: C-cbl SPR Kd vs Cbl-b SPR Kd; for Kd: SPR, 20° C. Summed up: (§2)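 Captured protein (1300-1500 RU for both isoforms) was probed in multi-cycle kinetics with 6 concentrations in 2-fold dilution, 60 s contact, 40 μl/min, dissociation 120-1200 s, double-referenced. Kinetic and affinity parameters came from a 1:1 binding fit. For slow off-rates, kd was set independently by a chaser-based method.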

The target of experiment [4] is c-Cbl (residues 47-435) (Homo sapiens (Human), UniProt P22681). The experiment in a line: c-Cbl SPR assay. The experiment is classed as binding. The conditions noted are these: 20° C. Summed up: as §2
In general terms: In SPR one partner is held on a chip, and binding of the other changes the refractive index at the surface.

[5] abbreviates: ratio C-cbl Lck HTRF IC50 / Cbl-b Lck HTRF IC50.

c-Cbl, sequence (P22681 47-435): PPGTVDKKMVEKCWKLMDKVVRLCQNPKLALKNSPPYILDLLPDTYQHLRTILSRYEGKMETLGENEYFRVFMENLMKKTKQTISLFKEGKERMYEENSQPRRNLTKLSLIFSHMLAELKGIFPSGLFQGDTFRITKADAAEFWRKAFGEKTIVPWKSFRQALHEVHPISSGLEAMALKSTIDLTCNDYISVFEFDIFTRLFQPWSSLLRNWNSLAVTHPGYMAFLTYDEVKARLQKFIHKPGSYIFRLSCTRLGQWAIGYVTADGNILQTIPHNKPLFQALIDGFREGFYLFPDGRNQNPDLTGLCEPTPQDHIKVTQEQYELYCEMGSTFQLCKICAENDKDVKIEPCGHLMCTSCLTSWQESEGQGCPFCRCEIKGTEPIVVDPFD
c-Cbl (residues 47-435), sequence (P22681 47-435): as above
Cbl-b, sequence (Q13191 40-426): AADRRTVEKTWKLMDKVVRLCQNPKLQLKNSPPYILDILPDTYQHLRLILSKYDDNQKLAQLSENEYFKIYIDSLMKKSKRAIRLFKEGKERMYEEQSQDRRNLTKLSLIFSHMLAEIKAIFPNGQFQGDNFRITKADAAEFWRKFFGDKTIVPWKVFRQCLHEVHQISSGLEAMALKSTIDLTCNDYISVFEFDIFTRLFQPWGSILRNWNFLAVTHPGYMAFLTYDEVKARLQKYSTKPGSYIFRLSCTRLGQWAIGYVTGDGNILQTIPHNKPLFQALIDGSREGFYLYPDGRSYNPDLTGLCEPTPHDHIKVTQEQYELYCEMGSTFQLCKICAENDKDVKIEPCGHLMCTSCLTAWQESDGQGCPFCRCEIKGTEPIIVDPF
Human Cbl-b (residues 40-426), sequence (Q13191 40-426): as above

As to `CO[C@H]1C[C@@H]([C@@H](c2cccc(N3Cc4c(cc(CN5CCN(C)C[C@@H]5C(C)C)cc4C(F)(F)F)C3=O)c2)c2nncn2C)C1` (stereo in doubt) [Compound 13, 6-(((S)-2-isopropyl-4-methylpiperazin-1-yl)methyl)-2-(3-((S)-((1 S,3S)-3-methoxycyclobutyl)(4-methyl-4H-1,2,4-triazol-3-yl)methyl)phenyl)-4-(trifluoromethyl)isoindolin-1-one], the IC50 (in general, the concentration that gives 50% inhibition) in experiment [1] came out at 200 nM; in experiment [2] it was 540 nM. Further, in experiment [1] (setting [5]), the “fold-selectivity (Cbl-b over C-cbl)” value is given as “(2.7x)”. This molecule showed a Fold of selectivity in experiment [3] of 4.1×. Moreover, the Kd – broadly, the equilibrium constant for the complex coming apart – was determined as 120 nM in experiment [3] and 490 nM in experiment [4].

In the case of `Cn1cnnc1C(F)(c1cccc(N2Cc3c(cc(CNC4(C)CCC4)cc3C(F)(F)F)C2=O)c1)C1(F)COC1` (stereo in doubt) [Compound 403, (S)-2-(3-(fluoro(3-fluorooxetan-3-yl)(4-methyl-4H-1,2,4-triazol-3-yl)methyl)phenyl)-6-(((1-methylcyclobutyl)amino)methyl)-4-(trifluoromethyl)isoindolin-1-one], the IC50 in experiment [1] came to 750 nM; in experiment [2] it was 960 nM. Moreover, in experiment [1] (setting [5]), the “fold-selectivity (Cbl-b over C-cbl)” value is recorded as 1.3x. Moreover, in experiment [3], the Fold of selectivity was found to be 1.0×. For the same molecule, the Kd in experiment [3] was determined as 2500 nM; in experiment [4], 2400 nM.

`Cn1cnnc1C(F)(c1cccc(N2Cc3c(cc(CNC4(C)CCC4)cc3C(F)(F)F)C2=O)c1)C1(F)COC1` (stereo in doubt) [Compound 404, (R)-2-(3-(fluoro(3-fluorooxetan-3-yl)(4-methyl-4H-1,2,4-triazol-3-yl)methyl)phenyl)-6-(((1-methylcyclobutyl)amino)methyl)-4-(trifluoromethyl)isoindolin-1-one]: the IC50 in experiment [1] (Example 121) is 4.8 nM; in experiment [2], 4.9 nM. For the same molecule, the “(fold-selectivity) Cbl-b and C-Cbl Selectivity” value in experiment [1] (setting [5]) came to 1.0x. The molecule further returned a Fold of selectivity in experiment [3] of 2.6×. For the same molecule, the Kd stood at 0.85 nM in experiment [3] and 2.2 nM in experiment [4].

`CCNc1cc(C2(c3nncn3C)CC3(COC3)C2)cc(N2Cc3c(cc(CNC4(C)CCC4)cc3C(F)(F)F)C2=O)n1` [Compound 7, 2-(6-(ethylamino)-4-(6-(4-methyl-4H-1,2,4-triazol-3-yl)-2-oxaspiro[3.3]heptan-6-yl)pyridin-2-yl)-6-(((1-methylcyclobutyl)amino)methyl)-4-(trifluoro-methyl)isoindolin-1-one]: the IC50 in experiment [1] amounted to 27 nM; in experiment [2], 25 nM. The “fold-selectivity (Cbl-b over C-cbl)” value in experiment [1] (setting [5]) is “(0.93x)”. In experiment [3], this molecule returned a Fold of selectivity of 4.4×. In addition, the Kd in experiment [3] was found to be 1.3 nM; in experiment [4], 5.7 nM.

For the molecule `CO[C@H]1C[C@@](c2cc(NC3CCCC3)nc(N3Cc4c(cc(CNC5(C)CCC5)cc4C(F)(F)F)C3=O)c2)(c2nncn2C)C1` [Compound 8, 2-(6-(cyclopentylamino)-4-((1s,3s)-3-methoxy-1-(4-methyl-4H-1,2,4-triazol-3-yl)cyclobutyl)pyridin-2-yl)-6-(((1-methylcyclobutyl)amino)methyl)-4-(trifluoromethyl)isoindolin-1-one], the IC50 in experiment [1] is 11 nM; in experiment [2], 43 nM. In addition, in experiment [1] (setting [5]), the “fold-selectivity (Cbl-b over C-cbl)” value was 3.9x. In experiment [3], this molecule displayed a Fold of selectivity of 6.9×. Also, the Kd came to 3.3 nM in experiment [3] and 23 nM in experiment [4].

Turning to `CO[C@H]1C[C@](c2cc(NC3CCCC3)nc(N3Cc4c(cc(CNC5(C)CCC5)cc4C(F)(F)F)C3=O)c2)(c2nncn2C)C1` [Compound 9, 2-(6-(cyclopentylamino)-4-((1r,3r)-3-methoxy-1-(4-methyl-4H-1,2,4-triazol-3-yl)cyclobutyl)pyridin-2-yl)-6-(((1-methylcyclobutyl)amino)methyl)-4-(trifluoromethyl)isoindolin-1-one], the IC50 was found to be 11 nM in experiment [1] and 118 nM in experiment [2]. Besides, the “fold-selectivity (Cbl-b over C-cbl)” value in experiment [1] (setting [5]) is 8.4x. The Fold of selectivity in experiment [3] came to 20×. The results for the Kd in experiment [3] and in experiment [4] were 11 nM and 220 nM, respectively.

With `Cn1cnnc1C1(c2cc(C3CC3)nc(N3Cc4c(cc(CNC5(C)CCC5)cc4C(F)(F)F)C3=O)c2)CC(F)(F)C1` [Compound 16, 2-(6-cyclopropyl-4-(3,3-difluoro-1-(4-methyl-4H-1,2,4-triazol-3-yl)cyclobutyl)pyridin-2-yl)-6-(((1-methylcyclobutyl)amino)methyl)-4-(trifluoromethyl)isoindolin-1-one], the IC50 stood at 6.9 nM in experiment [1] and 5.2 nM in experiment [2]. In addition, in experiment [1] (setting [5]), the “fold-selectivity (Cbl-b over C-cbl)” value is given as “(0.75x)”. For the same molecule, the Fold of selectivity in experiment [3] is 1.3×. Further, the Kd in experiment [3] amounted to 0.25 nM; in experiment [4], 0.34 nM.

Turning to `CCNc1cc(C2(c3nncn3C)CC(F)(F)C2)cc(N2Cc3c(cc(CNC4(C)CCC4)cc3C(F)(F)F)C2=O)n1` [Compound 17, 2-(4-(3,3-difluoro-1-(4-methyl-4H-1,2,4-triazol-3-yl)cyclobutyl)-6-(ethylamino)pyridin-2-yl)-6-(((1-methylcyclobutyl)amino)methyl)-4-(trifluoromethyl)isoindolin-1-one], the IC50 in experiment [1] was 5.5 nM; in experiment [2], 5.1 nM. For the same molecule, the “fold-selectivity (Cbl-b over C-cbl)” value in experiment [1] (setting [5]) is on record as “(0.93x)”. The molecule further showed a Fold of selectivity in experiment [3] of 3.2×. In addition, the Kd was found to be 0.37 nM in experiment [3] and 1.1 nM in experiment [4].

Take `C=C1CC(c2cccc(N3Cc4c(cc(CNC5(C)CCC5)cc4C(F)(F)F)C3=O)c2)(c2nncn2C)C1` [Compound 18, 2-(3-(1-(4-methyl-4H-1,2,4-triazol-3-yl)-3-methylenecyclobutyl)phenyl)-6-(((1-methylcyclobutyl)amino)methyl)-4-(trifluoromethyl)-isoindolin-1-one]: the IC50 was determined as 7.9 nM in experiment [1] and 7.7 nM in experiment [2]. The “fold-selectivity (Cbl-b over C-cbl)” value in experiment [1] (setting [5]) is “(0.97x)”. In experiment [3], this molecule showed a Fold of selectivity of 3.7×. In addition, the Kd in experiment [3] stood at 1.5 nM; in experiment [4], 5.6 nM.

Take `Cn1cnnc1C1(c2cccc(N3Cc4c(cc(CNC5(C)CCC5)cc4C(F)(F)F)C3=O)c2)CC(=O)C1` [Compound 19, 2-(3-(1-(4-methyl-4H-1,2,4-triazol-3-yl)-3-oxocyclobutyl)phenyl)-6-(((1-methylcyclobutyl)-amino)methyl)-4-(trifluoromethyl)isoindolin-1-one]: the IC50 in experiment [1] stood at 88 nM; in experiment [2], 176 nM. In addition, the “fold-selectivity (Cbl-b over C-cbl)” value in experiment [1] (setting [5]) was “(2.0x)”. In experiment [3], the Fold of selectivity is given as 5.0×. Further, the Kd was 40 nM in experiment [3] and 200 nM in experiment [4].

`Cn1cnnc1[C@]1(c2cccc(N3Cc4c(cc(CNC5(C)CCC5)cc4C(F)(F)F)C3=O)c2)C[C@@H](O)C1` [Compound 20, 2-(3-((1r,3r)-3-hydroxy-1-(4-methyl-4H-1,2,4-triazol-3-yl)cyclobutyl)phenyl)-6-(((1-methylcyclobutyl)amino)methyl)-4-(trifluoromethyl)isoindolin-1-one]: the figures for the IC50 in experiment [1] and in experiment [2] were 170 nM and 390 nM, respectively. Moreover, the “fold-selectivity (Cbl-b over C-cbl)” value in experiment [1] (setting [5]) is recorded as “(2.3x)”. Also, the Fold of selectivity in experiment [3] was found to be 4.4×. Also, the Kd in experiment [3] stood at 80 nM; in experiment [4] it was 350 nM.

`Cn1cnnc1[C@]1(c2cccc(N3Cc4c(cc(CNC5(C)CCC5)cc4C(F)(F)F)C3=O)c2)C[C@H](O)C1` [Compound 21, 2-(3-((1s,3s)-3-hydroxy-1-(4-methyl-4H-1,2,4-triazol-3-yl)cyclobutyl)phenyl)-6-(((1-methylcyclobutyl)amino)methyl)-4-(trifluoromethyl)isoindolin-1-one]: the results for the IC50 in experiment [1] and in experiment [2] were 18 nM and 41 nM, respectively. Moreover, the “fold-selectivity (Cbl-b over C-cbl)” value in experiment [1] (setting [5]) is recorded as “(2.3x)”. In experiment [3], this molecule returned a Fold of selectivity of 5.3×. Also, the Kd turned out to be 4.1 nM in experiment [3] and 22 nM in experiment [4].

On to `Cn1cnnc1[C@]1(c2cccc(N3Cc4c(cc(CNC5(C)CCC5)cc4C(F)(F)F)C3=O)c2)C[C@@H](C#N)C1` [Compound 24, (1r,3r)-3-(4-methyl-4H-1,2,4-triazol-3-yl)-3-(3-(6-(((1-methylcyclobutyl)amino)methyl)-1-oxo-4-(trifluoromethyl)isoindolin-2-yl)phenyl)cyclobutanecarbonitrile], for which the IC50 in experiment [1] came to 13 nM; in experiment [2], 23 nM. Moreover, the “fold-selectivity (Cbl-b over C-cbl)” value in experiment [1] (setting [5]) is “(1.8x)”. In experiment [3], the Fold of selectivity stood at 8.4×. Further, the Kd in experiment [3] amounted to 1.7 nM; in experiment [4] it was 15 nM.

With `Cn1cnnc1[C@]1(c2cccc(N3Cc4c(cc(CNC5(C)CCC5)cc4C(F)(F)F)C3=O)c2)C[C@H](C#N)C1` [Compound 25, (1s,3s)-3-(4-methyl-4H-1,2,4-triazol-3-yl)-3-(3-(6-(((1-methylcyclobutyl)amino)methyl)-1-oxo-4-(trifluoromethyl)isoindolin-2-yl)phenyl)cyclobutanecarbonitrile], the IC50 is 14 nM in experiment [1] and 36 nM in experiment [2]. In addition, in experiment [1] (setting [5]), the “fold-selectivity (Cbl-b over C-cbl)” value is reported as “(2.6x)”. The Fold of selectivity in experiment [3] came to 5.4×. Moreover, the figures for the Kd in experiment [3] and in experiment [4] were 4 nM and 22 nM, respectively.
